In patent EP1377579B1 (Aventis Pharmaceuticals Inc., priority 2000, dated 2002):

What was measured:
HL-60 Human Leukemia = test: HL-60 human leukemia xenograft in nude mice; assay type: in vivo; set-up: key: tumor volume = ½(a × b²) from caliper diameters, in mm^3; settings: Table 4
Protocol: Antitumor efficacy is assessed using two subcutaneous human tumor xenograft models. The studies are performed using conventional assay techniques. Briefly, HL-60 (leukemia, 5 x10^5 cells) and PC-3 (prostate, 5 x 10^6 cells) tumor cells are injected subcuateously into nude mice (Crl-CD1-Br-nu, Charles River Laboratory, Wilmington, MA). Dosing with compounds began when tumors reached 50 to 100 mm^3. The dose route/schedule for the test compounds is ip/qld (5x/wk). The test doses are set based on the maximum tolerated dose (MTD). […] The test doses for the efficacy studies are set at 1/3rd the MTD (low dose) and the MTD (high dose). The results are shown in Tables 4 and 5 (HL-60, leukemia) (PC-3, prostate cancer). The length of the treatment phase is dependent on the tumor growth rate for the two models. This treatment phase is typically about 3 weeks for the HL-60 model and about 5 weeks for the PC-3 model. […] Dosing with flavopiridol is for the same time frame as for the experimental compounds in both xenograft models. Tumor volume (twice weekly) and body weights (once weekly) are monitored throughout the course of the treatment phase of the experiment. Tumor sizes are measured by external caliper measurements of protruding tumor. Volumes are calculated using the following formula: volume =½ (a x b2), where b is the smaller of two perpendicular diameters.

HL-60 = test: In vitro proliferation assay (MTT), HL-60; assay type: cell-based; settings: Homo sapiens, HL-60; MTT assay; value (SD, n) where given; read-out: HL-60 Leuk. (IC50 µM)
In short: (§1)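 Plate 1000–2500 cells/well, RPMI 1640 + 5 % FBS, 3 mM L-glutamine; attach overnight → compound treatment 3 days → MTT, 37 C, 2–4 hr → remove medium, solubilize in DMSO → absorbance 570 nm → IC50.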

Jurkat = test: In vitro proliferation assay (MTT), Jurkat; assay type: cell-based; settings: Homo sapiens, MTT assay, value (SD, n) where given, read-out: Jurkat Leuk. (IC50 µM)
In short: as §1

[1] = Red blood cell binding, mouse whole blood; assay type: in vitro ADME; settings: 30 minutes at 37°C, 500 ng/ml
Protocol: Compounds, including one positive control, are assessed for red blood cell (RBC) uptake, using a modified procedure based on the protocol reported in Sun, J.X.S., et al. High-performance liquid chromatographic analysis, plasma protein binding and red blood cell partitioning of phenprobamate. Biopharmaceutics and Drug Disposition, 8 (1987) 341-351.
Briefly, RBC uptake is evaluated by comparison of the levels in spiked plasma (n=3) and plasma isolated from spiked whole blood (n=3). Compounds are incubated with human and mouse whole blood, respectively, for 30 minutes at 37°C using a nominal concentration of 500 ng/ml. Following centrifugation, the plasma is removed and submitted for analysis. Each compound is also spiked into blank plasma at a nominal concentration of 500 ng/ml, and submitted for analysis. Levels in the two plasma samples (Cp' and Cp in the equation below) and the blood hematocrit are used to determine the red blood cell to plasma ratio (Crbc/Cp). (Crbc)/(Cp) = (Cpʹ)/(Cp•H)-((1-H))/(H) [formula] In equation 1, Cp' is the level of drug in the spiked "blank" plasma, Cp is the level of drug in the plasma of spiked whole blood, and H is the hematocrit. The hematocrit values are determined as 0.4 for human whole blood and 0.41 for mouse whole blood. The samples are analyzed with ESI LC/MS, using positive ion detection with an internal standard.
The red blood cell to plasma ratio is determined for each compound using equation 1. Tables 6 and 7 summarize the respective mean Crbc/Cp values and standard deviations for mouse and human whole blood, respectively, in descending order based on the red blood cell to plasma ratio, where"*" denotes Positive Control, and "ND" denotes Not Determined. MDL 108552 is included as a positive control for red blood cell uptake. Table 6. Red Blood Cell to Plasma Ratio for compounds in mouse whole blood

cdk4/cyclin D1 = cdk4/cyclin D1 (Homo sapiens, UniProt P11802); test: Cyclin-dependent kinase assay, cdk4/cyclin D1; assay type: biochemical; settings: cyclin D1/cdk4; GST-pRb substrate, 10 µM ATP
Chain of cdk4/cyclin D1 (P11802 whole entry): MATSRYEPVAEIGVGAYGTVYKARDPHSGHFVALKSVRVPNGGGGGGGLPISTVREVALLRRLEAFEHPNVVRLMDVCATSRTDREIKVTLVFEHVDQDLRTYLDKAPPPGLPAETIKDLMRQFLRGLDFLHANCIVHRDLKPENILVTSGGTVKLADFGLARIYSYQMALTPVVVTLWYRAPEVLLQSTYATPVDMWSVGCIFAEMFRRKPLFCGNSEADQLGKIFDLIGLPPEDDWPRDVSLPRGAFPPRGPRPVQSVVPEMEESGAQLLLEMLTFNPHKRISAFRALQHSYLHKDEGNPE
Chain of cdk4/cyclin D1 (P24385 whole entry partner): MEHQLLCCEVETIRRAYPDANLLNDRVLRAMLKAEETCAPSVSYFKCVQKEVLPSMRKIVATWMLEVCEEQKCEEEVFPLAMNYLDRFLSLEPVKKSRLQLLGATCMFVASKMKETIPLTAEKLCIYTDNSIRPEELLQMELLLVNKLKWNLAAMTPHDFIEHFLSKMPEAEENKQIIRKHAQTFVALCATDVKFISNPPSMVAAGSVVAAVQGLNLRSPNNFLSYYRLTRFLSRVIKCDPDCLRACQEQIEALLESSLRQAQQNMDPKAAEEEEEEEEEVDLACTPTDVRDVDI

cdk1/cyclin B = cdk1/cyclin B (Homo sapiens, UniProt P06493); test: Cyclin-dependent kinase assay, cdk1/cyclin B; settings: CDK1 IC50, nM, Histone H1, 10 µM ATP
Chain of cdk1/cyclin B (P06493 whole entry): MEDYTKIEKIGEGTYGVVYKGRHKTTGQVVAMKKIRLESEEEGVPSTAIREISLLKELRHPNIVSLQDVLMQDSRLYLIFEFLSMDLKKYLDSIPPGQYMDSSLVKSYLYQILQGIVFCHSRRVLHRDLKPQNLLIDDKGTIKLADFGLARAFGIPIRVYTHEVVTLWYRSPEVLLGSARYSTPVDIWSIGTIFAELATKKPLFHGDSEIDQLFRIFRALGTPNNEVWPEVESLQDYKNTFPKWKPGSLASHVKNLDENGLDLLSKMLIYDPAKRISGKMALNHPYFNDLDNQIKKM
Chain of cdk1/cyclin B (P14635 whole entry partner): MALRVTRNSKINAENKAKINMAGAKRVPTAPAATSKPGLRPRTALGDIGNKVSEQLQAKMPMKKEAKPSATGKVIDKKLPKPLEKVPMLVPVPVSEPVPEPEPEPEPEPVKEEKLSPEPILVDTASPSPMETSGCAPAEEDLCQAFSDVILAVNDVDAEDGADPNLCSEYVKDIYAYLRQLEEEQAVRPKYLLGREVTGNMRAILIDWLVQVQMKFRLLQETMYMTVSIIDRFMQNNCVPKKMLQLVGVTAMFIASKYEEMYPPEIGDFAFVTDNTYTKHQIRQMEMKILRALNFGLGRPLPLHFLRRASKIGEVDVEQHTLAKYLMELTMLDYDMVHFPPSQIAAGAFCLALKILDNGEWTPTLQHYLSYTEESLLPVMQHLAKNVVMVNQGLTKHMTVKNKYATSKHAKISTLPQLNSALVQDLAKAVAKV

MDA-MB-435 = test: In vitro proliferation assay (MTT), MDA-MB-435; assay type: cell-based, human; settings: Homo sapiens, MDA-MB-435, MTT assay; value (SD, n) where given; read-out: MB-435 Breast (IC50 µM)
In short: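 MTT viability, 3 d compound treatment; seeding 1000–2500 cells/well, overnight attachment; formazan in DMSO, A570; IC50 fitted from raw absorbance.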

Compound	HL60 Mean Vol. ± SD (HL-60 Human Leukemia; dose 1 mg/kg ip)	HL60 Mean Vol. ± SD (HL-60 Human Leukemia; dose 3 mg/kg ip)	IC50 (HL-60) [µM]	IC50 (Jurkat) [µM]	Mean Red Blood Cell to Plasma Ratio [1]	IC50 (cdk4/cyclin D1) [nM]	IC50 (cdk1/cyclin B) [nM]	IC50 (MDA-MB-435) [µM]	HL60 Mean Vol. ± SD (HL-60 Human Leukemia; dose 10 mg/kg ip)
Cl.Cl.N[C@H]1CC[C@H](Nc2nc(NC3CCN(C(=O)Nc4ccc(C(F)(F)F)cc4)CC3)c3ncn(C4CCCC4)c3n2)CC1 [compound 149, trans-4-[2-(4-Amino-cyclohexylamino)-9-cyclopentyl-9H-purin-6-ylamino]-piperidine-1-carboxylic acid (4-trifluoromethyl-phenyl)-amide dihydrochloride]	4010 ± 2371	2505 ± 2104	0.03	0.22	3.4	91	30	0.15	–
CCOC(=O)c1ccc(NC(=O)N2CCC(Nc3nc(N[C@H]4CC[C@H](N)CC4)nc4c3ncn4C3CCCC3)CC2)cc1.Cl.Cl [compound 154, trans-4-[(1-{4-[2-(4-Amino-cyclohexylamino)-9-cyclopentyl-9H-purin-6-ylamino]-piperidin-1-yl}-methanoyl)-amino]-benzoic acid ethyl ester dihydrochloride]	–	2641 ± 3024	0.06	0.25	17.8	285	11	0.21	2950 ± 1929
